The record followed here is US5180724A, “Carboxamide amino acid heterobicyclic PAF antagonists” (British Bio-Technology Limited, priority 1991, dated 1993).

In assay [1] the target is T1, PAF receptor (specific receptor binding site on human platelet plasma membranes) (Homo sapiens, UniProt P25105).
T1 construct: from tissue; host or cells: human platelets (platelet concentrates from a hospital blood bank), lysed plasma membranes
Description: Inhibition of 3H-PAF binding to human platelet plasma membrane (receptor binding, filtration). The note with it: 0.5 nM 3H-PAF, 0° C., 1 hour incubation. As for the experimental part: (§1) Compounds of general formula I inhibit PAF-induced functions in both the cellular and tissue levels by changing the PAF binding to its specific receptor site. The ability of compounds of general formula I to inhibit the binding of PAF to its specific receptor binding site on human platelet plasma membranes was measured according to Pharmacological Example 1. The ability of compounds of general formula I to reverse the hypotension caused by an infusion of PAF in rats was measured according to Pharmacology Example 2.
The inhibition of ^3 H-PAF binding to human platelet plasma membrane by compounds of general formula I was determined by isotopic labelling and filtration techniques. Platelet concentrates were obtained from a hospital blood bank. These platelet concentrates (500-2500 ml.) were centrifuged at 800 rpm for 10 minutes in a SORVALL RC3B centrifuge to remove the red blood cells present. (The word SORVALL is a trade mark.) The supernatant was subsequently centrifuged at 3,000 rpm in a SORVALL RC3B centrifuge to pellet the platelets present. […]
The assay was conducted by preparing a series of Tris-buffered solutions of the selected antagonist of predetermined concentrations. […] Each washed residue was dried under vacuum on a sampling manifold and placed into vials containing 20 ml of OPTIPHASE MP scintillation fluid and the radioactivity counted in a liquid scintillation counter. […]

The test system of assay [2] is PAF-induced hypotension in the rat. Description: Reversal of PAF-induced hypotension in anaesthetised rats. Type of assay: in vivo, rat (male Sprague-Dawley). The note with it: iv, i.v. bolus during PAF infusion 100 ng/kg/min i.v., mean blood pressure fall of 50 mmHg, read-out: ED50 (dose to cause a 50% reversal of the hypotensive PAF response). As for the experimental part:
as §1
Male Sprague-Dawley rats (300-350 gms) were anaesthetised with a mixture of sodium pentobarbitone, 22.5 mg.kg^-1 and thiopental 62.5 mg.kg^-1. Through a midline incision in the neck, the trachea was cannulated and the animals breathed spontaneously. A carotid artery was cannulated for the measurement of blood pressure and this signal was used to trigger a rate meter to measure heart rate. Both jugular veins were cannulated: one for the infusion of PAF and the other for the bolus administration of test compounds.
PAF, 100 ng.kg^-1. min^-1 was infused i.v. until a sustained fall in mean blood pressure of 50 mmHg was achieved. […] The peak of this reversal was measured and the dose to cause a 50% reversal of the hypotensive PAF response (ED50) calculated by straight line interpolation and the results are presented in Table 2. Also presented in Table 2 is the result for a comparative example (N-cyclohexyl-N-methyl 4-(lH-imidazo[4,5-c]pyridin-1-ylmethyl)benzamide. This compound (a PAF antagonist described in EP-A-02606130) is not within the scope of the invention.

Structures are written as SMILES.

T1 sequence (P25105 whole entry): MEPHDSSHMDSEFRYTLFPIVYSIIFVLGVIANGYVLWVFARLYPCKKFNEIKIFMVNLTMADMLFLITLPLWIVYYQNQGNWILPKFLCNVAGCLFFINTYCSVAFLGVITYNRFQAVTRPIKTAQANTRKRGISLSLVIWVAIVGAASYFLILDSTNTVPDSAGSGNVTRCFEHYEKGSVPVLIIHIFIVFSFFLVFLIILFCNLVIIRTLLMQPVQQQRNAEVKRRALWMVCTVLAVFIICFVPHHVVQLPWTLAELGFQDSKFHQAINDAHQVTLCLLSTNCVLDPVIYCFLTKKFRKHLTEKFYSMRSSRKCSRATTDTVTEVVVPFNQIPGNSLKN

Consider `CCOC(=O)[C@H](CC(C)C)N(C)C(=O)c1ccc(Cn2c(C)nc3cnccc32)cc1` [2 (B), N-Methyl-N-L-leucinyl ethyl ester 4-(1H-2-methylimidazo[4,5-c]pyridylmethyl)benzamide], for which, in assay [1], the IC50 is 0.01 µM. For the same compound, the ED50 in assay [2] came to 5 µg/kg.

Regarding `CN(C(=O)c1ccc(Cn2cnc3cnccc32)cc1)C1CCCCC1` [Comparative Example, N-cyclohexyl-N-methyl 4-(lH-imidazo[4,5-c]pyridin-1-ylmethyl)benzamide, reference compound], the IC50 in assay [1] turned out to be 10 µM. In assay [2], the ED50 came to 150 µg/kg.

Take `CCOC[C@H](CC(C)C)N(C)C(=O)c1ccc(Cn2c(C)nc3cnccc32)cc1` [3 (B), N-Methyl-N-L-leucinol ethyl ether 4-(lH-2-methylimidazo[4,5-c]pyridylmethyl)benzamide]: the ED50 in assay [2] was 6 µg/kg.
